Results as given in patent US20240116985A1, “STAPLED PEPTIDES AND METHODS THEREOF” (priority 2020, published 2024).
pIC50: −log10 of the molar value. ≈ marks a conversion by molar mass, not a printed value. Where two headings read alike, the source gives them in different places.

Experiments:
Solubility in PBS = type: physicochemical
How it was run: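 Read-out is the HPLC peak area of the supernatant from ultracentrifuged PBS solution, scaled against a 50 μM peptide DMSO injection; value reported as [(PBS area)/(DMSO area)]*50 uM.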

[1] = molecular target: T1, full-length beta-Catenin (Uniprot ID P35222) (Homo sapiens, UniProt P35222); assay: Fluorescence polarization IC50 (beta-catenin / 5FAM-TCF4 10-53 competition); type: binding
T1 construct: 10 nM full-length beta-Catenin (Uniprot ID P35222)
T1 sequence (P35222 1-781): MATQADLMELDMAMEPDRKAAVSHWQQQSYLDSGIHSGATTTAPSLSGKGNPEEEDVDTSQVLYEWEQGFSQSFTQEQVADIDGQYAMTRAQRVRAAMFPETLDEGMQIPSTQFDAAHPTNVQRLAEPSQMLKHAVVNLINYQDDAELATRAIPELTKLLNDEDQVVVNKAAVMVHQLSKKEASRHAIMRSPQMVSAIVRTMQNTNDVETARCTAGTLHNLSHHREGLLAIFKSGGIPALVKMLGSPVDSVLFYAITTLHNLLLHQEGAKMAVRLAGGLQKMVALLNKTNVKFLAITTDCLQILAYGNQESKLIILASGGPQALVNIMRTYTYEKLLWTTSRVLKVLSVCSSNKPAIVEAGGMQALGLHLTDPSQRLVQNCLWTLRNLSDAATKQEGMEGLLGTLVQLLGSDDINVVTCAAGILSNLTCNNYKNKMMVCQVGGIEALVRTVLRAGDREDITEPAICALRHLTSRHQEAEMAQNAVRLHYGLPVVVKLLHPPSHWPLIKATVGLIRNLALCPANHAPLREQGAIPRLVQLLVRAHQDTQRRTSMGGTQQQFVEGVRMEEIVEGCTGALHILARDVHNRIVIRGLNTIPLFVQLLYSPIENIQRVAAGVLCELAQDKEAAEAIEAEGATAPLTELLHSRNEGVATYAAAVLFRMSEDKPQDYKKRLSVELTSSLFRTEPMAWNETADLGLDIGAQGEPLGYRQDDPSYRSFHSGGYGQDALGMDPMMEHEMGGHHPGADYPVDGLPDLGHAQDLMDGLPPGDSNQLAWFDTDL

CHI Log D procedure = type: physicochemical; settings: for CHI Log D: pH 7.4; for chromatographic logD: pH 7.4, CHI Log D
[2] = Table E2-1, read-out: beta-Catenin FP IC50
[3] = fluorescence polarization, beta-catenin, read-out: FP EC50

Structure (SMILES): CC(=O)N1CCC[C@]12CC=CCCCC1(CCCC=CCCCCCC[C@@](C)(C(=O)N[C@@H](Cc3ccccc3)C(=O)N[C@@H](Cc3c[nH]c4ccccc34)C(=O)N[C@@H](CCC(N)=O)C(N)=O)NC(=O)[C@H](C(C)C)NC(=O)[C@H](Cc3ccccc3)NC(=O)[C@H](C)NC(=O)[C@H](C)NC(=O)[C@H](Cc3c[nH]cn3)NC(=O)[C@H](CC(=O)O)NC1=O)NC(=O)[C@H](C)NC(=O)[C@H](CC(=O)O)NC2=O (stereo partly drawn) [I-305, Ac-PL3-Asp-Ala-B5-Asp-His-Ala-Ala-Phe-Val-S8-Phe-Trp-Gln-NH2]
- Solubility (Solubility in PBS): 10 µM (≈ 18 µg/mL)
- pIC50 [1, 2]: 5.40
- pIC50 [1, 3]: 5.40
- CHI Log D (CHI Log D procedure): 2.348

Structure (SMILES): CC(=O)N1CCC[C@]12CC=CCCCC1(CCCC=CCCCCCC[C@@](C)(C(=O)N[C@@H](Cc3ccccc3)C(=O)N[C@@H](Cc3c[nH]c4ccccc34)C(=O)N[C@@H](CCC(N)=O)C(N)=O)NC(=O)[C@H](C(C)C)NC(=O)[C@H](Cc3ccsc3)NC(=O)[C@H](C)NC(=O)[C@H](C)NC(=O)[C@H](CC(=O)O)NC(=O)[C@H](CC(=O)O)NC1=O)NC(=O)[C@H](C)NC(=O)[C@H](CC(=O)O)NC2=O (stereo partly drawn) [I-326, Ac-PL3-Asp-Ala-B5-Asp-Asp-Ala-Ala-3Thi-Val-S8-Phe-Trp-Gln-NH2]
- Solubility (Solubility in PBS; Solubility (uM)): 34 µM (≈ 60.8 µg/mL)
- pIC50 [1, 2]: 5.76
- chromatographic logD (CHI Log D procedure): 1.97

Structure (SMILES): CC(=O)N1CCC[C@]12CC=CCCCC1(CCCC=CCCCCCC[C@@](C)(C(=O)N[C@@H](Cc3ccccc3)C(=O)N[C@@H](Cc3c[nH]c4ccccc34)C(=O)N[C@@H](CCC(N)=O)C(N)=O)NC(=O)[C@H](C(C)C)NC(=O)[C@H](Cc3ccco3)NC(=O)[C@H](C)NC(=O)[C@H](C)NC(=O)[C@H](CC(=O)O)NC(=O)[C@H](CC(=O)O)NC1=O)NC(=O)[C@H](C)NC(=O)[C@H](CC(=O)O)NC2=O (stereo partly drawn) [I-327, Ac-PL3-Asp-Ala-B5-Asp-Asp-Ala-Ala-2FurA-Val-S8-Phe-Trp-Gln-NH2]
- Solubility (Solubility in PBS): 43 µM (≈ 76.2 µg/mL)
- pIC50 [1, 2]: 5.33
- pIC50 [1, 3]: 5.33
- CHI Log D (CHI Log D procedure): 1.958

Structure (SMILES): CC(=O)N1CCC[C@]12CC=CCCCC1(CCCC=CCCCCCC[C@@](C)(C(=O)N[C@@H](Cc3ccccc3)C(=O)N[C@@H](Cc3c[nH]c4ccccc34)C(=O)N[C@@H](CCC(N)=O)C(N)=O)NC(=O)[C@H](C(C)C)NC(=O)[C@H](Cc3ccco3)NC(=O)[C@H](C)NC(=O)[C@H](C)NC(=O)[C@H](CC(=O)O)NC(=O)[C@H](CC(=O)O)NC1=O)NC(=O)[C@H](C)NC(=O)[C@H](CC(=O)O)NC2=O (stereo partly drawn) [I-328, Ac-PL3-Asp-Ala-B5-Asp-Asp-Ala-Ala-2FurA-Val-S8-Phe-Trp-Gln-NH2]
- Solubility (Solubility in PBS): 44 µM (≈ 77.9 µg/mL)
- pIC50 [1, 2]: 5.72
- pIC50 [1, 3]: 5.72
- CHI Log D (CHI Log D procedure): 1.983

Structure (SMILES): CC(=O)N1CCC[C@]12CC=CCCCC1(CCCC=CCCCCCC[C@@](C)(C(=O)N[C@@H](Cc3ccccc3C(N)=O)C(=O)N[C@@H](Cc3csc4ccccc34)C(=O)N[C@@H](CCC(N)=O)C(N)=O)NC(=O)[C@H](C(C)C)NC(=O)[C@H](Cc3ccccc3)NC(=O)[C@H](C)NC(=O)[C@H](C)NC(=O)[C@H](CC(=O)O)NC(=O)[C@H](CC(=O)O)NC1=O)NC(=O)[C@H](C)NC(=O)[C@H](CC(=O)O)NC2=O (stereo partly drawn) [I-336, Ac-PL3-Asp-Ala-B5-Asp-Asp-Ala-Ala-Phe-Val-S8-2CBMF-BztA-Gln-NH2]
- Solubility (Solubility in PBS; Solubility (uM)): 48 µM (≈ 88.4 µg/mL)
- pIC50 [1, 2]: 6.82
- chromatographic logD (CHI Log D procedure): 1.74

Structure (SMILES): CC(=O)N1CCC[C@]12CC=CCCCC1(CCCC=CCCCCCC[C@@](C)(C(=O)N[C@@H](Cc3ccc(O)cc3)C(=O)N[C@@H](Cc3csc4ccccc34)C(=O)N[C@@H](CCC(N)=O)C(N)=O)NC(=O)[C@H](C(C)C)NC(=O)[C@H](Cc3ccccc3)NC(=O)[C@H](C)NC(=O)[C@H](C)NC(=O)[C@H](CC(=O)O)NC(=O)[C@H](CC(=O)O)NC1=O)NC(=O)[C@H](C)NC(=O)[C@H](CC(=O)O)NC2=O (stereo partly drawn) [I-341, Ac-PL3-Asp-Ala-B5-Asp-Asp-Ala-Ala-Phe-Val-S8-Tyr-BztA-Gln-NH2]
- Solubility (Solubility in PBS; Solubility (uM)): 38 µM (≈ 68.9 µg/mL)
- pIC50 [1, 2]: 5.70
- chromatographic logD (CHI Log D procedure): 1.73

Structure (SMILES): CC(=O)N1CCC[C@]12CC=CCCCC1(CCCC=CCCCCCC[C@@](C)(C(=O)N[C@@H](Cc3ccccc3)C(=O)N[C@@H](Cc3csc4ccccc34)C(=O)N[C@@H](CCC(N)=O)C(N)=O)NC(=O)[C@H]([C@@H](C)O)NC(=O)[C@H](Cc3ccccc3)NC(=O)[C@H](C)NC(=O)[C@H](C)NC(=O)[C@H](CC(=O)O)NC(=O)[C@H](CC(=O)O)NC1=O)NC(=O)[C@H](C)NC(=O)[C@H](CC(=O)O)NC2=O (stereo partly drawn) [I-342, Ac-PL3-Asp-Ala-B5-Asp-Asp-Ala-Ala-Phe-Thr-S8-Phe-BztA-Gln-NH2]
- Solubility (Solubility in PBS): 50 µM (≈ 90 µg/mL)
- pIC50 [1, 2]: 7.23
- chromatographic logD (CHI Log D procedure): 2.07

Structure (SMILES): CC(=O)N1CCC[C@]12CC=CCCCC1(CCCC=CCCCCCC[C@@](C)(C(=O)N[C@@H](Cc3ccccc3)C(=O)N[C@@H](Cc3csc4ccccc34)C(=O)N[C@@H](CCC(N)=O)C(N)=O)NC(=O)[C@H](CC(N)=O)NC(=O)[C@H](Cc3ccccc3)NC(=O)[C@H](C)NC(=O)[C@H](C)NC(=O)[C@H](CC(=O)O)NC(=O)[C@H](CC(=O)O)NC1=O)NC(=O)[C@H](C)NC(=O)[C@H](CC(=O)O)NC2=O (stereo partly drawn) [I-343, Ac-PL3-Asp-Ala-B5-Asp-Asp-Ala-Ala-Phe-Asn-S8-Phe-BztA-Gln-NH2]
- Solubility (Solubility in PBS): 50 µM (≈ 90.7 µg/mL)
- pIC50 [1, 2]: 6.76
- pIC50 [1, 3]: 6.76
- CHI Log D (CHI Log D procedure): 1.931

Structure (SMILES): CC(=O)N1CCC[C@]12CC=CCCCC1(CCCC=CCCCCCC[C@@](C)(C(=O)N[C@@H](Cc3ccccc3)C(=O)N[C@@H](Cc3csc4ccccc34)C(=O)N[C@@H](CCC(N)=O)C(N)=O)NC(=O)[C@H](CC(N)=O)NC(=O)[C@H](Cc3ccccc3)NC(=O)[C@H](C)NC(=O)[C@H](C)NC(=O)[C@H](CC(=O)O)NC(=O)[C@H](CC(=O)O)NC1=O)NC(=O)[C@H](C)NC(=O)[C@H](CC(=O)O)NC2=O (stereo partly drawn) [I-344, Ac-PL3-Asp-Ala-B5-Asp-Asp-Ala-Ala-Phe-Asn-S8-Phe-BztA-Gln-NH2]
- Solubility (Solubility in PBS): 44 µM (≈ 79.8 µg/mL)
- pIC50 [1, 2]: 7.38
- pIC50 [1, 3]: 7.38
- CHI Log D (CHI Log D procedure): 1.977

Structure (SMILES): COC[C@@H]1NC(=O)[C@H](CC(=O)O)NC(=O)[C@]2(CC=CCCCC3(CCCC=CCCCCCC[C@@](C)(C(=O)N[C@@H](Cc4ccccc4)C(=O)N[C@@H](Cc4csc5ccccc45)C(=O)N[C@@H](CCC(N)=O)C(N)=O)NC(=O)[C@H](C(C)C)NC(=O)[C@H](Cc4ccccc4)NC(=O)[C@H](C)NC(=O)[C@H](C)NC(=O)[C@H](CC(=O)O)NC(=O)[C@H](CC(=O)O)NC3=O)NC1=O)CCCN2C(C)=O (stereo partly drawn) [I-345, Ac-PL3-Asp-S(OMe)-B5-Asp-Asp-Ala-Ala-Phe-Val-S8-Phe-BztA-Gln-NH2]
- Solubility (Solubility in PBS; Solubility (uM)): 49 µM (≈ 89.6 µg/mL)
- pIC50 [1, 2]: 6.87
- chromatographic logD (CHI Log D procedure): 2.14

Structure (SMILES): CC(=O)N1CCC[C@]12CC=CCCCC1(CCCC=CCCCCCC[C@@](C)(C(=O)N[C@@H](Cc3ccccc3)C(=O)N[C@@H](Cc3csc4ccccc34)C(=O)N[C@@H](CCC(N)=O)C(N)=O)NC(=O)[C@H](C(C)C)NC(=O)[C@H](Cc3ccccc3)NC(=O)[C@H](C)NC(=O)[C@H](C)NC(=O)[C@H](CC(=O)O)NC(=O)[C@H](CC(=O)O)NC1=O)NC(=O)[C@H](CCC(N)=O)NC(=O)[C@H](CC(=O)O)NC2=O (stereo partly drawn) [I-346, Ac-PL3-Asp-Gln-B5-Asp-Asp-Ala-Ala-Phe-Val-S8-Phe-BztA-Gln-NH2]
- Solubility (Solubility in PBS): 44 µM (≈ 81.6 µg/mL)
- pIC50 [1, 2]: 6.74
- pIC50 [1, 3]: 6.74
- CHI Log D (CHI Log D procedure): 1.943

Structure (SMILES): CC(=O)N1CCC[C@]12CC=CCCCC1(CCCC=CCCCCCC[C@@](C)(C(=O)N[C@@H](Cc3ccccc3)C(=O)N[C@@H](Cc3csc4ccccc34)C(=O)N[C@@H](CCC(N)=O)C(N)=O)NC(=O)[C@H](C(C)C)NC(=O)[C@H](Cc3ccccc3)NC(=O)[C@H](C)NC(=O)[C@H](C)NC(=O)[C@H](CC(=O)O)NC(=O)[C@H](CC(=O)O)NC1=O)NC(=O)[C@H](CCC(N)=O)NC(=O)[C@H](CC(=O)O)NC2=O (stereo partly drawn) [I-347, Ac-PL3-Asp-Gln-B5-Asp-Asp-Ala-Ala-Phe-Val-S8-Phe-BztA-Gln-NH2]
- Solubility (Solubility in PBS): 50 µM (≈ 92.8 µg/mL)
- pIC50 [1, 2]: 6.92
- pIC50 [1, 3]: 6.92
- CHI Log D (CHI Log D procedure): 1.956
